In patent US20160367542A1, “NICOTINAMIDE DERIVATE IN THE TREATMENT OF ACUTE CORONARY SYNDROME” (GlaxoSmithKline LLC, priority 2012, published 2016):
Converted amounts (≈) assume the structure as drawn.

How the values were obtained:
[1] = tested on: patients with acute coronary syndrome (non-ST elevation); test: Recurrent infarction, infarct size and cardiac function in subjects with myocardial infarction (Example 4 study); assay type: in vivo, human
Protocol: (§1) In a randomised, double-blind, placebo controlled study, patients (n=approximately 500) who were admitted to a hospital with the diagnosis of acute coronary syndrome (specifically with non-ST elevation EKG findings upon entry) were provided an oral dose of losmapimod (7.5 mg or 15 mg and thereafter followed by 7.5 mg every 12 hours) or placebo for a period of 3 months.

CRP and IL6 levels = test: Inflammatory markers in subjects with myocardial infarction (Example 4 study); assay type: in vivo, human; conditions: oral 7.5 mg or 15 mg then 7.5 mg every 12 hours; average 4.5 day initial hospital stay, setting of stent placement
Protocol: as §1

[2] = tested on: in-vivo macrophage activity in the carotid arteries and aorta of subjects with established atherosclerosis; test: In-vivo macrophage activity study, FDG-PET/CT imaging; design: species or system human; conditions: 84 days
Text: Macrophage activity and presence are critical features to the vulnerability of plaque in the vasculature. The pivotal nature of p38 MAPK in signaling stress, and its presence in macrophages can be monitored by labeling glucose (fluorodeoxyglucose), an otherwise key nutrient for macrophage activity, and observing its uptake in macrophages using […]. […] The primary objective was to measure in-vivo macrophage activity, by fluorodeoxyglucose (FDG) positron emission tomography (PET)/computed tomography (CT) imaging, in carotid arteries and aorta following a 12-week treatment with losmapimod (7.5 mg once daily [QD] and 7.5 mg twice daily [BID]), in the setting of chronic statin therapy, as compared to placebo. Secondary objectives included safety and tolerability of 12 weeks of dosing with losmapimod (7.5 mg QD or 7.5 mg BID). Inflammatory biomarkers and the effect of losmapimod 7.5 mg QD vs 7.5 mg BID on in-vivo macrophage activity, as assessed by FDG-PET/CT imaging. Ninety-nine patients with vascular inflammation on statins were randomised to losmapimod 7.5 mg once daily (QD), twice daily (BID) or placebo for 84 days. Vascular inflammation was assessed by PET-CT imaging of the carotid arteries and aorta using ^18fluorodeoxyglucose (FDG); the artery with the highest average maximum tissue-to-background ratio (TBR) at baseline (TBR>1.6). […]

physchem = assay type: physicochemical
Text: There is therefore a need for a liquid formulation of said compound that is suitable for this mode of administration which solves this technical problem.

[3] = tested on: high sensitivity C-reactive protein; test: Inflammatory biomarkers in the FDG-PET/CT study; assay type: in vivo, human; conditions: 7.5 mg BID versus placebo; 95% CI −46, −5; p=0.023
Protocol: The primary objective was to measure in-vivo macrophage activity, by fluorodeoxyglucose (FDG) positron emission tomography (PET)/computed tomography (CT) imaging, in carotid arteries and aorta following a 12-week treatment with losmapimod (7.5 mg once daily [QD] and 7.5 mg twice daily [BID]), in the setting of chronic statin therapy, as compared to placebo. Secondary objectives included safety and tolerability of 12 weeks of dosing with losmapimod (7.5 mg QD or 7.5 mg BID). Inflammatory biomarkers and the effect of losmapimod 7.5 mg QD vs 7.5 mg BID on in-vivo macrophage activity, as assessed by FDG-PET/CT imaging. Ninety-nine patients with vascular inflammation on statins were randomised to losmapimod 7.5 mg once daily (QD), twice daily (BID) or placebo for 84 days. Vascular inflammation was assessed by PET-CT imaging of the carotid arteries and aorta using ^18fluorodeoxyglucose (FDG); the artery with the highest average maximum tissue-to-background ratio (TBR) at baseline (TBR>1.6). 92% of the subjects were white, 86% male, the mean age was 63.8 years (SD 6.13). 72% were current or ex-smokers. […] All subjects were on a stable dose of statin for at least 3 months prior to the first dose and continued on this dose of statin throughout the study.

[4] = tested on: hypercholerolesteric patients; conditions: Circulation. 2011;123:515-523; cited from earlier work

Cc1c(F)cc(C(=O)NC2CC2)cc1-c1ccc(C(=O)NCC(C)(C)C)cn1 [losmapimod, 6-(5-cyclopropylcarbamoyl-3-fluoro-2-methyl-phenyl)-N-(2,2-dimethylpropyl)-nicotinamide]
size of the infarct by magnetic resonance image, lower versus placebo ([1]; MRI 4-5 days after the index infarct, smaller cohort n=approximately 90): > 20%
BNP levels (surrogate for cardiac function), reduction ([1]; after 12 weeks of treatment): > 20%
size of the index infarct by release of cardiac muscle enzymes ([1]; enzymes measured every 8 hours, treated versus placebo group): unchanged
three month MR imaging of cardiac function and dimensions ([1]; three months of treatment): improved function and smaller overall cardiac dimensions
number of recurrent myocardial infarctions (or episodes of ACS), lower with treatment compared to placebo ([1]; within the first few months beyond the index infarct, not statistically significant): over 15%
CRP level, lower with treatment compared to placebo (CRP and IL6 levels): > 50%
IL6 level, lower with treatment compared to placebo (CRP and IL6 levels): > 50%
proportion of active slices (TBR≧1.6), change from baseline ([2]; 7.5 mg BID, placebo −6.1%, p=0.002, exploratory analysis): −9.8%
change from baseline to day 84 in average maximum TBR (primary end point) ([2]; losmapimod versus placebo, patients on statins): not significantly different
solubility (physchem): ~5 µg/mL (≈ 13 µM)
high sensitivity C-reactive protein, reduction versus placebo [3]: −28%
nitric oxide mediated vasodilatation [4]: improves
